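Growth conditions: 96-well plates. Treatment: test compound, 48 hours, 5 concentrations. Analysis: linear interpolation between bracketing concentrations; unreached endpoints set to highest concentration. GI50 marks 50% less growth. TGI marks complete inhibition of growth.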

Test systems include SN12C renal; SK-MEL-5 melanoma; NCI-H460 lung; A498 renal; HCT-116 colon; ACHN renal; OVCAR-8 ovarian; MCF7 breast; HOP-62 NSCLC; U251 CNS.
Experiment in all cases: NCI tumour cell line growth inhibition, 48 h

For the compound `N#Cc1c(N/N=C/c2c(Cl)cccc2Cl)nc(N)nc1N1CCOCC1`, the GI50 is 16.8 µM in the assay on SN12C renal; 3.71 µM in the assay on SK-MEL-5 melanoma; 5.32 µM with NCI-H460 lung; 2.67 µM in the assay with A498 renal; 4.72 µM with HCT-116 colon; 5.48 µM in the assay with ACHN renal. In addition, the GI50 in the assay on OVCAR-8 ovarian is 60.6 µM; in the assay on MCF7 breast it was 3.18 µM; in the assay on HOP-62 NSCLC, 13.9 µM; with U251 CNS, 15.6 µM. Further, the TGI is 85.7 µM with SN12C renal; 24 µM in the assay with SK-MEL-5 melanoma; over 100 µM with NCI-H460 lung; 15.5 µM in the assay with A498 renal; 31.3 µM with HCT-116 colon; over 100 µM in the assay on ACHN renal. Also, the TGI in the assay with OVCAR-8 ovarian, with MCF7 breast, in the assay with HOP-62 NSCLC and with U251 CNS was over 100 µM each time.

Take `COc1cccc(C=Nc2cc(C)ccn2)c1O.COc1cccc(C=Nc2cc(C)ccn2)c1O.[Cu]`: the GI50 was 19 µM with SN12C renal; 7.39 µM in the assay with SK-MEL-5 melanoma; 18.3 µM in the assay with NCI-H460 lung; 22.8 µM with A498 renal; 14.1 µM with HCT-116 colon; 22.3 µM in the assay on ACHN renal. The GI50 in the assay with OVCAR-8 ovarian is 20.4 µM; in the assay on MCF7 breast, 19.7 µM; in the assay with HOP-62 NSCLC it was 22.2 µM; with U251 CNS, 15.7 µM. Moreover, the TGI was found to be 50.4 µM in the assay on SN12C renal; 20.9 µM in the assay on SK-MEL-5 melanoma; 44 µM in the assay on NCI-H460 lung; 43.4 µM with A498 renal; 32.3 µM in the assay with HCT-116 colon; 43.8 µM with ACHN renal. In addition, the TGI in the assay on OVCAR-8 ovarian came out at 64.4 µM; in the assay with MCF7 breast it was 62.8 µM; with HOP-62 NSCLC, 63.7 µM; with U251 CNS, 51.1 µM.

As for `CN(C)CCCN1c2ccccc2CCc2ccc(Cl)cc21`, the GI50 with SN12C renal was 3.26 µM; in the assay with SK-MEL-5 melanoma, 1.54 µM; with NCI-H460 lung, 4.46 µM; in the assay with A498 renal it was 5.47 µM; with HCT-116 colon, 3.53 µM; in the assay with ACHN renal it was 3.81 µM. In addition, the GI50 in the assay with OVCAR-8 ovarian is 8.23 µM; with MCF7 breast, 1.76 µM; in the assay on HOP-62 NSCLC it was 10.8 µM; in the assay on U251 CNS, 3.8 µM. Also, the TGI was 16.3 µM in the assay on SN12C renal; 2.9 µM in the assay on SK-MEL-5 melanoma; 19.1 µM in the assay on NCI-H460 lung; 19.4 µM in the assay with A498 renal; 12.3 µM in the assay on HCT-116 colon; 13.5 µM in the assay on ACHN renal. In addition, the TGI in the assay on OVCAR-8 ovarian was 23.6 µM; in the assay with MCF7 breast, 3.66 µM; in the assay with HOP-62 NSCLC, 23.3 µM; with U251 CNS, 14.7 µM.

As for `COc1cc2nc(N3CCCC3)nc(NCC3CCCCC3)c2cc1OC`, the GI50 with SN12C renal is 1.48 µM; in the assay on SK-MEL-5 melanoma, 1.35 µM; in the assay with NCI-H460 lung, 1.75 µM; with A498 renal it was 1.11 µM; in the assay on HCT-116 colon it was 0.805 µM; in the assay on ACHN renal, 1.44 µM. The GI50 was 1.59 µM in the assay on OVCAR-8 ovarian, 0.515 µM in the assay with MCF7 breast, 1.56 µM with HOP-62 NSCLC and 1.21 µM with U251 CNS. Moreover, the TGI in the assay on SN12C renal was found to be 2.91 µM; with SK-MEL-5 melanoma, 2.68 µM; in the assay on NCI-H460 lung, 3.35 µM; with A498 renal, 2.47 µM; with HCT-116 colon, 2.21 µM; with ACHN renal it was 2.75 µM. The TGI with OVCAR-8 ovarian was 3.52 µM; in the assay with MCF7 breast it was 2.03 µM; with HOP-62 NSCLC it was 3.2 µM; in the assay with U251 CNS it was 2.64 µM.

Turning to `Cc1ccc(NC(=O)/C=C/c2ccccc2)c(C(N)=O)c1`, the GI50 was 7.76 µM in the assay with SN12C renal; 1.94 µM in the assay on SK-MEL-5 melanoma; 3.46 µM in the assay with NCI-H460 lung; 3.61 µM with A498 renal; 2.96 µM with HCT-116 colon; 11 µM in the assay with ACHN renal. Also, the GI50 in the assay with OVCAR-8 ovarian is 7.38 µM; in the assay on MCF7 breast it was 3.15 µM; in the assay on HOP-62 NSCLC, 11.1 µM; with U251 CNS, 3.8 µM. The TGI was over 100 µM in the assay on SN12C renal; over 41.5 µM in the assay with SK-MEL-5 melanoma; 25.9 µM with NCI-H460 lung; 34.6 µM in the assay with A498 renal; over 76.8 µM in the assay with HCT-116 colon; over 96.6 µM in the assay with ACHN renal. Further, the TGI in the assay with OVCAR-8 ovarian, in the assay with MCF7 breast, in the assay with HOP-62 NSCLC and with U251 CNS was over 100 µM throughout.

On to `COc1ccc(-c2cc(-c3ccccc3)nc(SCCCC(=O)NO)n2)cc1`, for which the GI50 with SN12C renal is 1.61 µM; with SK-MEL-5 melanoma, 1.26 µM; in the assay with NCI-H460 lung it was 0.468 µM; in the assay with A498 renal it was 0.816 µM; in the assay on HCT-116 colon it was 0.531 µM; in the assay with ACHN renal, 0.356 µM. The GI50 with OVCAR-8 ovarian is 0.389 µM; with MCF7 breast, 1.9 µM; in the assay with HOP-62 NSCLC, 0.994 µM; in the assay on U251 CNS, 1.12 µM. Further, the TGI with SN12C renal is 8 µM; in the assay on SK-MEL-5 melanoma, 2.75 µM; with NCI-H460 lung it was 5.65 µM; in the assay on A498 renal it was 2.53 µM; with HCT-116 colon, 12.7 µM; with ACHN renal it was 1.46 µM. In addition, the TGI with OVCAR-8 ovarian was 19.8 µM; in the assay with MCF7 breast, 10 µM; in the assay with HOP-62 NSCLC, 8.88 µM; in the assay on U251 CNS, 4.22 µM.

For `COc1ccc(C(OCC2OC(n3ccc(NC(=O)c4ccccc4)nc3=O)C(O)C2O)(c2ccccc2)c2ccccc2)cc1` (stereo not given), the TGI was 3.2 µM in the assay with SN12C renal; 3.32 µM in the assay with SK-MEL-5 melanoma; 4.02 µM in the assay on NCI-H460 lung; 2.97 µM with A498 renal; 3.23 µM with HCT-116 colon; 7.59 µM in the assay on ACHN renal. In addition, the TGI was found to be 3.22 µM in the assay on OVCAR-8 ovarian, 4.26 µM with MCF7 breast, 4 µM in the assay with HOP-62 NSCLC and 3.48 µM in the assay with U251 CNS.

The values above are taken from PubChem BioAssay (NCI).
